Data as given in patent US12181473B2 (priority 2017, dated 2024).

System: fumonisin B1 monoclonal antibody secreted from the hybridoma cell line Fm7A11
Type: binding, BALB/c mice

| Structure (SMILES) | sensitivity (IC50, concentration of competitive antigen at 50% suppression ratio) [ng/mL] | Cross rates of response [%] |
| --- | --- | --- |
| CCCC[C@@H](C)[C@@H](OC(=O)C[C@@H](CC(=O)O)C(=O)O)[C@H](C[C@@H](C)C[C@H](O)CCCC[C@@H](O)C[C@H](O)[C@H](C)N)OC(=O)C[C@@H](CC(=O)O)C(=O)O [fumonisin B1] | 0.32 |  |
| CCCC[C@@H](C)[C@@H](OC(=O)C[C@@H](CC(=O)O)C(=O)O)[C@H](C[C@@H](C)CCCCCC[C@@H](O)C[C@H](O)[C@H](C)N)OC(=O)C[C@@H](CC(=O)O)C(=O)O [fumonisin B2] |  | 4.3 |
| CCCC[C@@H](C)[C@@H](OC(=O)C[C@@H](CC(=O)O)C(=O)O)[C@H](C[C@@H](C)C[C@H](O)CCCCCC[C@H](O)[C@H](C)N)OC(=O)C[C@@H](CC(=O)O)C(=O)O [fumonisin B3] |  | 12.8 |
